{"source": "patent US9532949B2", "about": "“Intraperitoneally-administered nanocarriers that release their therapeutic load based on the inflammatory environment of cancers” (STC.UNM, priority 2011, dated 2017)", "key": {"[1]": {"assay": "Disruption of supported lipid bilayer on porous silica spheres by Triton X-100, release of fluorescein", "conditions": "5% (w/v) Triton X-100; 3 μm porous silica spheres, egg PC bilayer, supernatant fluorescence", "procedure": "FIG. 7. Disruption of lipid bilayer by Triton X-100. 3 μm silica spheres with 50 Å nominal pore size were incubated with 5 mM fluorescein then coated with a lipid bilayer made of egg phosphatidyl choline. Part of spheres was left with no treatment, and part was treated with Triton X-100 (TX 100) at a final concentration of 5% (w/v). Fluorescence of the supernatant after sedimenting the spheres was examined to check for release of fluorescein.\nThe platform we plan to use employs supported lipid bilayers (SLBs) on porous silica. We will test the disruption of SLBs by ozone employing the above described system to generate ozone photochemically by Trp. For detecting disruption of the SLB we tested the proof-of-concept by adding Triton X-100 (TX 100) to spheres encapsulating fluorescein within 3 microns porous silica (Macherey-Nagel, Germany) followed by forming the SLB as previously described (FIG. 7). Disruption of the SLB by TX 100 caused release of the encapsulated fluorescein (14 fold increase in fluorescence by TX100 vs. untreated spheres)."}, "macrophages": {"tested_on": "macrophages", "assay": "Generation of ROS by activated macrophages (CellROX, flow cytometry)", "format": "cell-based", "conditions": "PMA 1 μM for 30 minutes, 5 μM CellROX", "procedure": "H36.12j and RAW264.7 macrophages cell line was obtained from American Type Cell Culture (ATCC, Manassas, Va.). H36.12j cells were grown in Delbecco's Modified Eagles Medium (ATTC, Manassas, Va.) supplemented with 10% (v/v) Heat-inactivated iron bovine calf serum. Propagation was at 37° C. in 5% carbon dioxide. RAW264.7 cells were grown in Delbecco's Modified Eagles Medium (ATTC, Manassas, Va.) supplemented with 10% (v/v) fetal bovine serum. Propagation was at 37° C. in 10% carbon dioxide.\nCells (0.2×10^6 in 500 uL media) were pipetted into each well of 24-well plate. Cells were stimulated with phorbol-12-myristate-13-acetate (PMA), (Sigma—Saint Louis, Mo.) at a final concentration of 1 μM for 30 minutes, followed by an incubation with 5 μM CellROX (Invitrogen) for 30 minutes to detect ROS. Fluorescence was then determined by flow cytometry."}, "[2]": {"assay": "Photochemical ozone production catalyzed by amino acids in cell-free system (indigo carmine absorbance at 610 nm)", "conditions": "for Ozone production: 1 mM amino acid or 5 mg/mL BSA, 10 μM 6-biopterin, UVA irradiation, 30 μM indigo carmine", "procedure": "FIG. 4. Ozone production catalyzed by amino acids in cell-free system in presence of 10 μM 6-biopterin and with UVA irradiation. Tubes also contained 30 μM indigo carmine which got converted by ozone to isatin sulfonic acid as detected by a decrease in absorbance at 610 nm. 1 mM of each amino acid and 5 mg/mL BSA in phosphate buffer were tested. Error bars represent standard deviation for three replicates.\nFIG. 5. Both UVA and 6BP are required to generate ozone by tryptophan. 1 mM Trp was tested. Error bars represent standard deviation for three replicates.\nFIG. 6. Dose response curve for generation of ozone by increasing concentrations of Trp. Tested concentrations were 0, 10, 20, 40, 80 & 160, 500, 1000 μM tryptophan. Higher concentrations 500 μM and 1 mM Trp are not shown as they gave similar results to 160 μM. Error bars represent standard deviation for three replicates.\nWe successfully generated ozone (a molecule with the chemical signature of ozone) in a cell-free system by employing a photochemical source i.e. by adding a photosensitizer and exposing the tube contents to UVA irradiation. Our findings are summarized in this section. Four amino acids (tryptophan, methionine, cysteine, and histidine), but not other amino acids were reported to have the same catalytic activity as antibodies needed for water oxidation to produce ozone along with increasing bactericidal activity of neutrophils by employing a photochemical source. For our preliminary studies we used amino acids as the simplest mechanism to generate ozone. The photosensitizer we used is 6-biopterin (Sigma-Aldrich, St Louis, Mo.), and the UVA irradiation (315-400 nm) was provided by an ozone-free 1000W Xenon arc lamp as a solar simulator with blocking UVB radiation by appropriate filters (Oriel Instruments, Stratford, Conn.). The output of UVA radiation was confirmed and was measured by a UV meter (Model 3D, Solar Light, Glenside, Pa.) to be 6 mW/cm^2; we exposed the samples for 4 minutes. Ozone was detected through its conversion of indigo carmine (a blue dye with absorbance maximum at 610 nm) to isatin sulfonic acid (colorless) as we monitored this conversion by measuring absorbance at 610 nm as previously described.\nThe platform we plan to use employs supported lipid bilayers (SLBs) on porous silica. We will test the disruption of SLBs by ozone employing the above described system to generate ozone photochemically by Trp. […] Disruption of the SLB by TX 100 caused release of the encapsulated fluorescein (14 fold increase in fluorescence by TX100 vs. untreated spheres)."}}}
{"compound": "Triton X-100 [TX 100]", "values": [{"measurement": "Increase in fluorescence (release of encapsulated fluorescein) vs. untreated spheres", "setting": "[1]", "result": 14, "unit": "fold"}]}
{"compound": "CCCCCCCCCCCCCC(=O)O[C@@H]1[C@@H](C)[C@@]2(O)[C@@H](C=C(CO)C[C@]3(O)C(=O)C(C)=C[C@@H]23)[C@@H]2C(C)(C)[C@]12OC(C)=O", "note": "[PMA, phorbol-12-myristate-13-acetate]", "values": [{"measurement": "Generation of ROS by macrophages", "setting": "macrophages", "result": "ROS was generated"}]}
{"compound": "N[C@@H](Cc1c[nH]c2ccccc12)C(=O)O", "note": "[tryptophan]", "values": [{"measurement": "Conversion of singlet oxygen to ozone, dose response", "setting": "[2]; 0-1000 μM tryptophan", "result": "dose-dependent manner"}, {"measurement": "Ozone production", "setting": "[2]", "result": "photochemically generated ozone"}, {"measurement": "Ozone production", "setting": "[2]; listed as Tryptophan", "result": "highest level of ozone"}, {"measurement": "Water oxidation (ozone generation) by tryptophan alone", "setting": "[2]; without 6-biopterin and UVA exposure, 1 mM Trp", "result": "not capable of water oxidation"}]}
{"compound": "COc1cccc2c1C(=O)c1c(O)c3c(c(O)c1C2=O)C[C@@](O)(C(=O)CO)C[C@@H]3O[C@H]1C[C@H](N)[C@H](O)[C@H](C)O1", "note": "[DOX, doxorubicin]", "values": [{"measurement": "Cytotoxicity (cell death)", "setting": "OVCA cells", "result": 96, "unit": "%"}, {"measurement": "Cytotoxicity", "setting": "OVCA cells; 1 μM DOX, 24 hr incubation", "result": "~45", "unit": "%"}]}
